The values that follow come from US5559127A, “Fibrinogen receptor antagonists” (Merck & Co., Inc., priority 1995, dated 1996).

Structures are written as SMILES.

The test concerns human platelets. Description: ADP-stimulated platelet aggregation assay (inhibition of aggregation of gel-filtered human platelets). The note with it: fibrinogen 100 μg/ml, Ca2+ 1 mM, 10 uM ADP, 37° C., read-out: IC50 (dose inhibiting aggregation by 50% relative to a control lacking the compound). Type of test: cell-based. The method, then:
The ADP-stimulated platelet aggregation assay was used to determine IC50 inhibition associated with compounds of the invention.
Human platelets were isolated from fresh blood, collected into acid citrate/dextrose by differential centrifugation followed by gel filtration on Sepharose 2B in divalent ion-free Tyrode's buffer (pH 7.4) containing 2% bovine serum albumin. Platelet aggregation was measured at 37° C. in a a Chronolog aggregometer. The reaction mixture contained gel-filtered human platelets (2×10^8 […]), fibrinogen (100 μg/ml), Ca^2+ (1 mM), and the compound to be tested. Aggregation was initiated by adding 10 uM ADP 1 minute after the other components had been added. The reaction was allowed to proceed for at least 2 minutes. The extent of inhibition of aggregation was expressed as the percentage of the rate of aggregation observed in the absence of inhibitor. The IC50 is the dose of a particular compound inhibiting aggregation by 50% relative to a control lacking the compound.
The term IC50 denotes the concentration that gives 50% inhibition. On to `CCCCS(=O)(=O)N[C@@H](Cc1ccc2oc(C(=O)NCC3CCNCC3)cc2c1)C(=O)O` [2(S)-(Butylsulfonylamino)-3-{5-[2'-(4-piperidinylmethyl)aminocarbonyl]benzofuranyl}propionic acid], for which the IC50 was determined as 6600 nM.

Consider `CCCCS(=O)(=O)N[C@@H](Cc1ccc2oc(CCCC3CCNCC3)cc2c1)C(=O)O` [2(S)-(Butylsulfonylamino)-3-{5-[2'-3-(piperidin-4-ylpropyl)benzofuranyl]}propionic acid], for which the IC50 came to 200 nM.

As for `O=C(N[C@@H](CNC(=O)c1ccc2cc(CCC3CCNCC3)sc2c1)C(=O)O)OCc1ccccc1` [2-[2-(Piperidin-4-yl)ethyl]benzothiophene-6-N-[3-(2(S)-N-carbobenzyloxyaminopropionic acid)]carboxamide], the IC50 worked out at 67 nM.

Regarding `CCCCS(=O)(=O)N[C@@H](CNC(=O)c1ccc2[nH]c(CCC3CCNCC3)nc2c1)C(=O)O` [2-[2-(4-Piperidinyl)ethyl]benzimidazole-5-carbonyl-[2(S)-butylsulfonylamino]-β-alanine], the IC50 came to 22 nM.

Regarding `O=C(NC[C@H](NS(=O)(=O)c1ccccc1)C(=O)O)c1cc2cc(OCCC3CCNCC3)ccc2[nH]1` [5-[2-(4-Piperidinylethyl)oxy]-2-indolecarbonyl-2(S)-phenylsulfonyl0amino-β-alanine], the IC50 stood at 12 nM.

Consider `CCCCS(=O)(=O)N[C@@H](CNC(=O)c1ccc2cc(CCC3CCNCC3)sc2c1)C(=O)O` [2-[2-(Piperidin-4-yl)ethyl]benzothiophene-6-N-[3-(2(S)-butylsulfonylaminopropionic acid)]carboxamide], for which the IC50 was found to be 36 nM.
